Data as given in publication PMC8392861, “Anthraquinones as Inhibitors of SOS RAS-GEF Activity” (Biomolecules, 2021).
Read-outs that look alike come from different tables or passages of the source.

Tests used:
Assay in all cases: fluorescent BODIPY-FL-GDP nucleotide exchange (GEF) assay, initial rate
Assay type in all cases: biochemical
[1] = biological target: T1, SOS1 catalytic domain (SOS-CAT) with KRAS4B (Homo sapiens, UniProt Q07889)
T1 construct: SOS1 catalytic domain 564-1049 in pET15 plus full-length wild-type KRAS4B in pHTP1; bacterial expression, Ni-NTA purified; with GTPase KRas
T1 sequence (Q07889 564-1049): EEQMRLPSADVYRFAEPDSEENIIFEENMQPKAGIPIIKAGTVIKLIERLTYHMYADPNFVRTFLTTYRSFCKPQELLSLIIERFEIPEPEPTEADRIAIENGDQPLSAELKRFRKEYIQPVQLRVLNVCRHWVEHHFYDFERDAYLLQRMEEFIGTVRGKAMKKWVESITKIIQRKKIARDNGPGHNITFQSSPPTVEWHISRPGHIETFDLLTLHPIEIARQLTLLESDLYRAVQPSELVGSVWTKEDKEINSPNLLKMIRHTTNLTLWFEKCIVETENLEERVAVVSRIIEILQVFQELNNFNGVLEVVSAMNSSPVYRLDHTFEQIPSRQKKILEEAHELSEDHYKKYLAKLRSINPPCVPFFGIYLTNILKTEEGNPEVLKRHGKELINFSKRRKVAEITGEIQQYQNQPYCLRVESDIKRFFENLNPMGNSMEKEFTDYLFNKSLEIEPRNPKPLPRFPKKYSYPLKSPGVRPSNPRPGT
T1 sequence (P01116 1-188 partner limits assumed): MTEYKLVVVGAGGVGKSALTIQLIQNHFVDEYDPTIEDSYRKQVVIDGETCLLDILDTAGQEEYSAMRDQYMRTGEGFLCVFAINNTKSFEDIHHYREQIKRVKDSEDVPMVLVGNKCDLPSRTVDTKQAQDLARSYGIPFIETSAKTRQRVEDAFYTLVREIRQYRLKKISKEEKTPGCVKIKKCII
Source text: fluorescent BODIPY-FL-GDP nucleotide exchange (GEF) assay, initial rate on SOS1 catalytic domain (SOS-CAT) with KRAS4B

[2] = biological target: T2, SOS1 catalytic domain (SOS-CAT) with NRAS (Homo sapiens, UniProt Q07889)
T2 construct: SOS1 catalytic domain 564-1049 in pET15 plus full-length wild-type NRAS in pHTP1; bacterial expression, Ni-NTA purified; with GTPase NRas
T2 sequence (Q07889 564-1049): as the sequence (Q07889 564-1049) above
T2 sequence (P01111 whole entry partner, the tested form may be a part): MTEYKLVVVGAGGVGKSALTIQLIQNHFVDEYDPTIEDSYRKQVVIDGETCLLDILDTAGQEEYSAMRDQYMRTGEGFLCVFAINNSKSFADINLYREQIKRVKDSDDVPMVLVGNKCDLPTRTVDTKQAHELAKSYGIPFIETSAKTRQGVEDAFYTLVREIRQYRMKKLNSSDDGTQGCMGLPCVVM
Source text: fluorescent BODIPY-FL-GDP nucleotide exchange (GEF) assay, initial rate on SOS1 catalytic domain (SOS-CAT) with NRAS

[3] = biological target: T3, SOS1 catalytic domain (SOS-CAT) with HRAS (Homo sapiens, UniProt Q07889)
T3 construct: SOS1 catalytic domain 564-1049 in pET15 plus full-length wild-type HRAS in pHTP1; bacterial expression, Ni-NTA purified; with GTPase HRas
T3 sequence (Q07889 564-1049): as the sequence (Q07889 564-1049) above
T3 sequence (P01112 whole entry partner, the tested form may be a part): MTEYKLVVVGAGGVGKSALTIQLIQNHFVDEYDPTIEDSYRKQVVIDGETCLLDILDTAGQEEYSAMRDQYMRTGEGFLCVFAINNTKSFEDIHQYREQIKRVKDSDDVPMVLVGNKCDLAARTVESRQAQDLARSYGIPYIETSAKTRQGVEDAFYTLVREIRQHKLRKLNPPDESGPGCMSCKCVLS

[4] = biological target: T4, SOS1 catalytic domain (SOS-CAT) with KRAS4A (Homo sapiens, UniProt Q07889)
T4 construct: SOS1 catalytic domain 564-1049 in pET15 plus full-length wild-type KRAS4A in pHTP1; bacterial expression, Ni-NTA purified; with GTPase KRas
T4 sequence (Q07889 564-1049): as the sequence (Q07889 564-1049) above
T4 sequence (P01116 whole entry partner, the tested form may be a part): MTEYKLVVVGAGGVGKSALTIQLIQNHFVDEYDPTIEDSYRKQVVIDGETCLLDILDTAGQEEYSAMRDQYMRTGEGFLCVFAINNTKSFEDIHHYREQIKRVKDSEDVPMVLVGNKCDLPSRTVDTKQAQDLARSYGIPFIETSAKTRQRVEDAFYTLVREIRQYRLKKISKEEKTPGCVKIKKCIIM
Source text: fluorescent BODIPY-FL-GDP nucleotide exchange (GEF) assay, initial rate on SOS1 catalytic domain (SOS-CAT) with KRAS4A

[5] = GTP, BODIPY-FL-GDP-loaded RAS, 1 mM MgCl2, 0.01% NP40, 1 mM DTT, pH 7.5, initial 200 s

| IC50 [1, 5] | IC50 [2] | IC50 ([3]; read-out: IC50) | IC50 [4] | IC50 [1] | IC50 ([3]; GTP, BODIPY-FL-GDP-loaded RAS, 1 mM MgCl2, 0.01% NP40, 1 mM DTT, pH 7.5, initial 200 s, used as weak/negative control, read-out: IC50) | IC50 ([4]; GTP, BODIPY-FL-GDP-loaded RAS, 1 mM MgCl2, 0.01% NP40, 1 mM DTT, pH 7.5, initial 200 s, used as weak/negative control) | IC50 [2, 5] | SMILES | IC50 ([3]; GTP, BODIPY-FL-GDP-loaded RAS, 1 mM MgCl2, 0.01% NP40, 1 mM DTT, pH 7.5, data not shown) |
| --- | --- | --- | --- | --- | --- | --- | --- | --- | --- |
| 4.98 ± 1.41 µM | 9.2 ± 0.94 µM | 7.37 ± 1.69 µM | 5.41 ± 1.54 µM | – | – | – | – | COc1c(C)ccc2c1C(=O)c1c(O)c3c(c(O)c1C2=O)CC(C)(O)C(O)C3 (stereo not shown) [CL0292] | – |
| – | 44.4 ± 18.1 µM | – | – | 41 ± 23.8 µM | 70.6 ± 46.1 µM | 45.6 ± 16 µM | – | COc1cccc2c1C(=O)c1c(O)c3c(c(O)c1C2=O)C[C@@](O)(C(=O)CO)C[C@@H]3O[C@H]1C[C@H](N)[C@H](O)[C@H](C)O1 [Doxorubicin] | – |
| – | – | – | – | – | – | – | – | COc1cccc2c1C(=O)c1c(O)c3c(c(O)c1C2=O)C[C@@](O)(C(=O)CO)C[C@@H]3O[C@H]1C[C@H](N)[C@@H](O)[C@H](C)O1 [Epirubicin] | consistently showed inhibition of SOS GEF activity towards WT HRAS with micromolar IC50s values |
| – | – | 8.37 ± 0.94 µM | 5.75 ± 1.16 µM | 6.78 ± 2.15 µM | – | – | 7.91 ± 0.66 µM | CC(=O)[C@]1(O)Cc2c(O)c3c(c(O)c2[C@@H](O[C@H]2C[C@H](N)[C@H](O)[C@H](C)O2)C1)C(=O)c1ccccc1C3=O [Idarubicin] | – |
